Source: PubChem BioAssay AID1918995 (Molecular Pharmacology Branch, DTP, NCI, 2023)

System: 324938-238-R-J1-PDC complex spheroid growth, % test/control
Test: Anticancer human tumor 324938-238-R-J1-PDC patient-derived bladder carcinoma cell line growth inhibition [AhR]
Conditions: for IC50: curve of first compound; for viability, T/C: stronger effect = lower value
Outline: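 Complex tumor spheroids co-cultured with HUVEC and human MSC stroma; AhR antagonists tested in combination with standard-of-care and investigational agents. Top concentration at or near clinical Cmax (else 10 microM), half-log dilutions; growth expressed as percent test/control.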

[1] = second compound 0.1 µM, first compound 0.0316 µM
[2] = second compound 0.1 µM, first compound 0.1 µM
[3] = second compound 0.1 µM, first compound 0.316 µM
[4] = second compound 0.1 µM, first compound 1 µM
[5] = second compound 0.1 µM, first compound 3.16 µM
[6] = second compound 0.1 µM, first compound 10 µM
[7] = second compound 0.316 µM, first compound 0.0316 µM
[8] = second compound 0.316 µM, first compound 0.1 µM
[9] = second compound 0.316 µM, first compound 0.316 µM
[10] = second compound 0.316 µM, first compound 1 µM
[11] = second compound 0.316 µM, first compound 3.16 µM
[12] = second compound 0.316 µM, first compound 10 µM
[13] = second compound 1 µM, first compound 0.0316 µM
[14] = second compound 1 µM, first compound 0.1 µM
[15] = second compound 1 µM, first compound 0.316 µM
[16] = second compound 1 µM, first compound 1 µM
[17] = second compound 1 µM, first compound 3.16 µM
[18] = second compound 1 µM, first compound 10 µM
[19] = second compound 3.16 µM, first compound 0.0316 µM
[20] = second compound 3.16 µM, first compound 0.1 µM
[21] = second compound 3.16 µM, first compound 0.316 µM
[22] = second compound 3.16 µM, first compound 1 µM
[23] = second compound 3.16 µM, first compound 3.16 µM
[24] = second compound 3.16 µM, first compound 10 µM
[25] = second compound 10 µM, first compound 0.0316 µM
[26] = second compound 10 µM, first compound 0.1 µM
[27] = second compound 10 µM, first compound 0.316 µM
[28] = second compound 10 µM, first compound 1 µM
[29] = second compound 10 µM, first compound 3.16 µM
[30] = second compound 10 µM, first compound 10 µM
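Further: spheroids exposed to agents for seven days before viability read.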

For `CCc1c2c(nc3ccc(O)cc13)-c1cc3c(c(=O)n1C2)COC(=O)[C@]3(O)CC` + Cc1ccccc1N=Nc1ccc(NC(=O)c2ccnn2C)c(C)c1, the IC50 (second compound 0.1 µM) was 3.21 nM, the IC50 (second compound 0.316 µM) was 2.48 nM and the IC50 (second compound 1 µM) was 1.88 nM. It also gave an IC50 (second compound 3.16 µM) of 1.25 nM, an IC50 (second compound 10 µM) of 1.44 nM and a viability, T/C (second compound 0.1 µM, first compound 0.000949 µM) of 62.4%. For the same compound, the viability, T/C (second compound 0.1 µM, first compound 0.003 µM) was 52%, the viability, T/C (second compound 0.1 µM, first compound 0.00949 µM) was 18.5% and the viability, T/C (second compound 0.1 µM, first compound 0.03 µM) was 15.2%. It also gave a viability, T/C (second compound 0.1 µM, first compound 0.0949 µM) of 16.2%, a viability, T/C (second compound 0.1 µM, first compound 0.3 µM) of 15.5% and a viability, T/C (second compound 0.316 µM, first compound 0.000949 µM) of 57.4%. For the same compound, the viability, T/C (second compound 0.316 µM, first compound 0.003 µM) was 48.5%, the viability, T/C (second compound 0.316 µM, first compound 0.00949 µM) was 17.1% and the viability, T/C (second compound 0.316 µM, first compound 0.03 µM) was 16.4%. For the same compound, the viability, T/C (second compound 0.316 µM, first compound 0.0949 µM) was 14.2%, the viability, T/C (second compound 0.316 µM, first compound 0.3 µM) was 16.1% and the viability, T/C (second compound 1 µM, first compound 0.000949 µM) was 52.4%. The viability, T/C (second compound 1 µM, first compound 0.003 µM) was 48.4%, the viability, T/C (second compound 1 µM, first compound 0.00949 µM) was 17.9% and the viability, T/C (second compound 1 µM, first compound 0.03 µM) was 12.9%. For the same compound, the viability, T/C (second compound 1 µM, first compound 0.0949 µM) was 15.8%, the viability, T/C (second compound 1 µM, first compound 0.3 µM) was 15.1% and the viability, T/C (second compound 3.16 µM, first compound 0.000949 µM) was 50.9%. It also gave a viability, T/C (second compound 3.16 µM, first compound 0.003 µM) of 47.9%, a viability, T/C (second compound 3.16 µM, first compound 0.00949 µM) of 14.9% and a viability, T/C (second compound 3.16 µM, first compound 0.03 µM) of 12.8%. The viability, T/C (second compound 3.16 µM, first compound 0.0949 µM) was 13.8%, the viability, T/C (second compound 3.16 µM, first compound 0.3 µM) was 15.4% and the viability, T/C (second compound 10 µM, first compound 0.000949 µM) was 52.3%. For the same compound, the viability, T/C (second compound 10 µM, first compound 0.003 µM) was 46%, the viability, T/C (second compound 10 µM, first compound 0.00949 µM) was 19.9% and the viability, T/C (second compound 10 µM, first compound 0.03 µM) was 12.9%. The viability, T/C (second compound 10 µM, first compound 0.0949 µM) was 14% and the viability, T/C (second compound 10 µM, first compound 0.3 µM) was 16.2%.

`Nc1ccccc1NC(=O)c1ccc(CNC(=O)OCc2cccnc2)cc1` + Cc1ccccc1N=Nc1ccc(NC(=O)c2ccnn2C)c(C)c1 was tested, and the IC50 (second compound 0.1 µM) was 2230 nM, the IC50 (second compound 0.316 µM) was 1740 nM and the IC50 (second compound 1 µM) was 3830 nM. For the same compound, the IC50 (second compound 3.16 µM) was 2750 nM, the IC50 (second compound 10 µM) was 3090 nM and the viability, T/C [1] was 104%. For the same compound, the viability, T/C [2] was 118%, the viability, T/C [3] was 98.1% and the viability, T/C [4] was 62.1%. The viability, T/C [5] was 48.6%, the viability, T/C [6] was 38.3% and the viability, T/C [7] was 93.7%. The viability, T/C [8] was 110%, the viability, T/C [9] was 104% and the viability, T/C [10] was 55.5%. For the same compound, the viability, T/C [11] was 50.2%, the viability, T/C [12] was 37.8% and the viability, T/C [13] was 91.8%. It also gave a viability, T/C [14] of 94.5%, a viability, T/C [15] of 85.8% and a viability, T/C [16] of 64.6%. It also gave a viability, T/C [17] of 56%, a viability, T/C [18] of 38% and a viability, T/C [19] of 82.9%. The viability, T/C [20] was 102%, the viability, T/C [21] was 79.1% and the viability, T/C [22] was 58.4%. It also gave a viability, T/C [23] of 53.7%, a viability, T/C [24] of 43.1% and a viability, T/C [25] of 86.8%. The viability, T/C [26] was 91.4%, the viability, T/C [27] was 77.4% and the viability, T/C [28] was 57.7%. For the same compound, the viability, T/C [29] was 56.4% and the viability, T/C [30] was 40.5%.

For `Nc1ccn(C2OC(CO)C(O)C2(F)F)c(=O)n1` (stereo not given) + Cc1ccccc1N=Nc1ccc(NC(=O)c2ccnn2C)c(C)c1, the IC50 (second compound 0.1 µM) was 37.1 nM, the IC50 (second compound 0.316 µM) was < 31.6 nM and the IC50 (second compound 1 µM) was < 31.6 nM. The IC50 (second compound 3.16 µM) was < 31.6 nM, the IC50 (second compound 10 µM) was < 31.6 nM and the viability, T/C [1] was 53.1%. For the same compound, the viability, T/C [2] was 32.3%, the viability, T/C [3] was 15.5% and the viability, T/C [4] was 14.1%. It also gave a viability, T/C [5] of 10.4%, a viability, T/C [6] of 8.56% and a viability, T/C [7] of 47.2%. The viability, T/C [8] was 24.7%, the viability, T/C [9] was 15.4% and the viability, T/C [10] was 12.3%. It also gave a viability, T/C [11] of 10.3%, a viability, T/C [12] of 8.15% and a viability, T/C [13] of 43.7%. The viability, T/C [14] was 34.1%, the viability, T/C [15] was 16.8% and the viability, T/C [16] was 13.2%. For the same compound, the viability, T/C [17] was 9.31%, the viability, T/C [18] was 7.14% and the viability, T/C [19] was 46.6%. For the same compound, the viability, T/C [20] was 32.8%, the viability, T/C [21] was 15.7% and the viability, T/C [22] was 12.6%. For the same compound, the viability, T/C [23] was 10.9%, the viability, T/C [24] was 7.52% and the viability, T/C [25] was 44.9%. For the same compound, the viability, T/C [26] was 34.8%, the viability, T/C [27] was 19.2% and the viability, T/C [28] was 14.3%. For the same compound, the viability, T/C [29] was 13.1% and the viability, T/C [30] was 8.08%.

`O=C(c1cc(Cc2n[nH]c(=O)c3ccccc23)ccc1F)N1CCN(C(=O)C2CC2)CC1` + Cc1ccccc1N=Nc1ccc(NC(=O)c2ccnn2C)c(C)c1 was tested, and the IC50 (second compound 0.1 µM) was > 10000 nM, the IC50 (second compound 0.316 µM) was > 10000 nM and the IC50 (second compound 1 µM) was > 10000 nM. For the same compound, the IC50 (second compound 3.16 µM) was > 10000 nM, the IC50 (second compound 10 µM) was > 10000 nM and the viability, T/C [1] was 98%. For the same compound, the viability, T/C [2] was 105%, the viability, T/C [3] was 101% and the viability, T/C [4] was 103%. The viability, T/C [5] was 87.6%, the viability, T/C [6] was 75.5% and the viability, T/C [7] was 99.4%. The viability, T/C [8] was 99.8%, the viability, T/C [9] was 91.7% and the viability, T/C [10] was 92.1%. The viability, T/C [11] was 89.8%, the viability, T/C [12] was 68.5% and the viability, T/C [13] was 94.4%. It also gave a viability, T/C [14] of 100%, a viability, T/C [15] of 95.5% and a viability, T/C [16] of 90.6%. For the same compound, the viability, T/C [17] was 78.7%, the viability, T/C [18] was 72.3% and the viability, T/C [19] was 84.5%. The viability, T/C [20] was 79%, the viability, T/C [21] was 87.3% and the viability, T/C [22] was 84.5%. The viability, T/C [23] was 74.4%, the viability, T/C [24] was 65.2% and the viability, T/C [25] was 84.6%. For the same compound, the viability, T/C [26] was 83.4%, the viability, T/C [27] was 81.2% and the viability, T/C [28] was 85.1%. The viability, T/C [29] was 72.4% and the viability, T/C [30] was 65.9%.
